Patent publication US8669054B2, “Marker for gastric cancer and method for detecting gastric cancer” (The Chinese University of Hong Kong, priority 2010, dated 2014)

Tested on: PAX5 gene expression in methylated GC and CRC cell lines
Experiment: Demethylation treatment with 5-Aza; PAX5 expression by semiquantitative RT-PCR
Assay type: cell-based, human
Details: 2 μM 5-Aza for 5 days; AGS, MKN28, KatoIII, HCT116, SW620 and SW480
Protocol: Semiquantitative RT-PCR was performed in a total volume of 25 μL reaction containing GeneAmp 1×PCR Buffer II (Applied Biosystems), 2.5 mM MgCl2, 200 μM each of dNTP, 200 nM each of primers, 0.5 U of AmpliTaq Gold DNA polymerase (Applied Biosystems) and 30˜50 ng cDNA. […] The PCR bands were visualized under ultraviolet light and photographed. The expression of the target gene was normalized by the expression of house keeping gene β-actin, which served as an internal control. […] Cells were then treated with 2 μM 5-aza-2′-deoxycytidine (“5-Aza”) (Sigma-Aldrich) for 5 days. The 5-Aza was replenished every day.

Nc1ncn([C@H]2C[C@H](O)[C@@H](CO)O2)c(=O)n1 [5-Aza, 5-aza-2′-deoxycytidine]
PAX5 gene expression after 5-Aza demethylation treatment (RT-PCR): restore expression
